Reference: the kinase profiling compilation of Christmann-Franck et al. (2016)
Values joined by “and” are separate entries in the source; they are usually repeats but may differ in a detail not shown here. Equal values may be shown once. Values belong to the molecule of their own block, whether it stands above or below them.

Key:
Assay in all cases: radiometric filter-binding kinase assay, Kinase HotSpot
Conditions in all cases: compound 0.5 µM; ATP 10 µM
[1] = target: ABL1 (human) (UniProt P00519)
[2] = target: ACVRL1 (human) (UniProt P37023)
[3] = target: BRSK1 (human) (UniProt Q8TDC3)
[4] = target: BRSK2 (human) (UniProt Q8IWQ3)
[5] = target: CAMK4 (human) (UniProt Q16566)
CAMK4 (human), sequence (Q16566 whole entry, looked up): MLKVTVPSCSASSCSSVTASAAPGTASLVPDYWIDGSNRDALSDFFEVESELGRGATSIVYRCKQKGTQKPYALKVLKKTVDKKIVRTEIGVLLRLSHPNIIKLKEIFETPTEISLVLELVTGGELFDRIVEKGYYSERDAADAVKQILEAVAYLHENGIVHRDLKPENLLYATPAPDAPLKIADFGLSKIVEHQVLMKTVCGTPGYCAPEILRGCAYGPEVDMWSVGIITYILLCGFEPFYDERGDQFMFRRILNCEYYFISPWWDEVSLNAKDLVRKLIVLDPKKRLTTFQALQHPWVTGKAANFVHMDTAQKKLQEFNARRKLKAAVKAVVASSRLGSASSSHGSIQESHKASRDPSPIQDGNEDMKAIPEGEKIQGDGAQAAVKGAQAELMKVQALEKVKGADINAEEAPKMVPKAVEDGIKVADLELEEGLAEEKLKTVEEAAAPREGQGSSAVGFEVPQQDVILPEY

[6] = target: CDK1 CCNA2 (human) (UniProt P06493+P20248)
[7] = target: CDK3 CCNE1 (human) (UniProt Q00526+P24864)
[8] = target: CDK6 CCND3 (human) (UniProt P30281+Q00534)
[9] = target: CDK9 CCNT1 (human) (UniProt P50750+O60563)
[10] = target: CLK1 (human) (UniProt P49759)
[11] = target: CLK3 (human) (UniProt P49761)
[12] = target: CLK4 (human) (UniProt Q9HAZ1)
[13] = target: CSK (human) (UniProt P41240)
[14] = target: CSNK1A1 (human) (UniProt P48729)
[15] = target: CSNK1G3 (human) (UniProt Q9Y6M4)
[16] = target: DAPK3 (human) (UniProt O43293)
[17] = target: DYRK1A (human) (UniProt Q13627)
[18] = target: EGFR (human) (UniProt P00533)
EGFR (human), sequence (P00533 whole entry, looked up): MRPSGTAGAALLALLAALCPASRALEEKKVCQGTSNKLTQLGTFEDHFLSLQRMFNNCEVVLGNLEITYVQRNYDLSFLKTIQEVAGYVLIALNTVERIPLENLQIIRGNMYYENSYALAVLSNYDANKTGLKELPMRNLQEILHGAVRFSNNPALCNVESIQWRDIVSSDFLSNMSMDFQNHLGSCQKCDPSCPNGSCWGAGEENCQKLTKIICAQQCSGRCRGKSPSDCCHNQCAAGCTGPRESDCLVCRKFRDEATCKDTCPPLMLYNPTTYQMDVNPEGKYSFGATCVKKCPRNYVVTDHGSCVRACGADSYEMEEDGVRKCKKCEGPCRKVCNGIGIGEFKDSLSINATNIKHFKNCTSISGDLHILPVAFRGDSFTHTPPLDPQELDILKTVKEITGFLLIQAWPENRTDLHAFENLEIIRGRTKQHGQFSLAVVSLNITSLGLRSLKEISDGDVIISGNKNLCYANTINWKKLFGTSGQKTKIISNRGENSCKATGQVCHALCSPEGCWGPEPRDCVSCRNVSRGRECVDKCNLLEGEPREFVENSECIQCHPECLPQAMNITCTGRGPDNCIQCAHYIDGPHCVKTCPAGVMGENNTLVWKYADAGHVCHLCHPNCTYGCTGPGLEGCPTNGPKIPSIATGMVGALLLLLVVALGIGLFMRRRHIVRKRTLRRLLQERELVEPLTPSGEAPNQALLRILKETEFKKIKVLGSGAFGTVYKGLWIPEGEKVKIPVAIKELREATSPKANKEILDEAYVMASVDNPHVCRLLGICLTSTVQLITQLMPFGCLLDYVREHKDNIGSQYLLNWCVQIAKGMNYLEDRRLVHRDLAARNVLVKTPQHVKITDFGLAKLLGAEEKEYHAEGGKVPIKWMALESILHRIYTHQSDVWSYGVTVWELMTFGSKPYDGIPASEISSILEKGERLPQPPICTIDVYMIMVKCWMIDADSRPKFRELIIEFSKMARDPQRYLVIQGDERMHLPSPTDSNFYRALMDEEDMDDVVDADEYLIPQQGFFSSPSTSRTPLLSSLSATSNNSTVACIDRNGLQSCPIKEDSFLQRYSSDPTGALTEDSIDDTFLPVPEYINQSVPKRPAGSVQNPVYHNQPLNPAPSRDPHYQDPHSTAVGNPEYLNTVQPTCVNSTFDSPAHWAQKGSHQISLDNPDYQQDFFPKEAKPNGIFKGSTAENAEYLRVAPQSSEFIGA

[19] = target: EPHA6 (human) (UniProt Q9UF33)
[20] = target: GRK7 (human) (UniProt Q8WTQ7)
[21] = target: IRAK4 (human) (UniProt Q9NWZ3)
IRAK4 (human), sequence (Q9NWZ3 whole entry, looked up): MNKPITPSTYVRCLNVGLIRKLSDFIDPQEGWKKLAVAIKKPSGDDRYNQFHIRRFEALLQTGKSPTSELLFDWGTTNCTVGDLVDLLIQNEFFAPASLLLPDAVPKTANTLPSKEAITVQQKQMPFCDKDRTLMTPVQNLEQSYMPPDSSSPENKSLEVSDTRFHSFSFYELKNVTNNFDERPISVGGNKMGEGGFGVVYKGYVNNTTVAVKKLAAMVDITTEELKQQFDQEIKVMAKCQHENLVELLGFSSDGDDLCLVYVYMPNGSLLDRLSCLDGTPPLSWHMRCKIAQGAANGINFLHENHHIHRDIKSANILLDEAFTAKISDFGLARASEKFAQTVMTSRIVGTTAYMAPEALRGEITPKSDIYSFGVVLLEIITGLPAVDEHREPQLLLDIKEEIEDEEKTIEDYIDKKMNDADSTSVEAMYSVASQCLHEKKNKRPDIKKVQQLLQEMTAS

[22] = target: KDR (human) (UniProt P35968)
[23] = target: MAP3K5 (human) (UniProt Q99683)
[24] = target: MAP4K5 (human) (UniProt Q9Y4K4)
[25] = target: MARK2 (human) (UniProt Q7KZI7)
MARK2 (human), sequence (Q7KZI7 whole entry, looked up): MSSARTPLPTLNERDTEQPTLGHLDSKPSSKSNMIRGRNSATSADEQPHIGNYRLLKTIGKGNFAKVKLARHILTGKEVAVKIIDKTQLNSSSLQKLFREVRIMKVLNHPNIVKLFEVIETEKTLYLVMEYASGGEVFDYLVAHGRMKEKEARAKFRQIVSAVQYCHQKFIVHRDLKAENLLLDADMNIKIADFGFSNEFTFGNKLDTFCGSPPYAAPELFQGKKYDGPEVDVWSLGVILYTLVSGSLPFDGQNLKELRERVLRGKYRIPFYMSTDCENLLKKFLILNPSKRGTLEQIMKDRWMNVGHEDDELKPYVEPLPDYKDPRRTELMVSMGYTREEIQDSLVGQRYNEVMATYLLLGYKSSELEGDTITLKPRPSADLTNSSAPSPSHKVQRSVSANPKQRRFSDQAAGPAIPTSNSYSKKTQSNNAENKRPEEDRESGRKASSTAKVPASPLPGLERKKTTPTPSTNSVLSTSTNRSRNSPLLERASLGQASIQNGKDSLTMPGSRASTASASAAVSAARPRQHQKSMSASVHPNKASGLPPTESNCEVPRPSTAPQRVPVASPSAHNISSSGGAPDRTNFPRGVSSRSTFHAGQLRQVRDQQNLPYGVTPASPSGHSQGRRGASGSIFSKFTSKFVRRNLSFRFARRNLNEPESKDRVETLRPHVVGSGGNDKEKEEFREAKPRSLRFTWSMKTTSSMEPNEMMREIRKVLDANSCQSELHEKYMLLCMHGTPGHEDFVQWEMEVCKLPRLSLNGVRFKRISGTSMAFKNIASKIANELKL

[26] = target: MARK3 (human) (UniProt P27448)
[27] = target: MKNK2 (human) (UniProt Q9HBH9)
MKNK2 (human), sequence (Q9HBH9 whole entry, looked up): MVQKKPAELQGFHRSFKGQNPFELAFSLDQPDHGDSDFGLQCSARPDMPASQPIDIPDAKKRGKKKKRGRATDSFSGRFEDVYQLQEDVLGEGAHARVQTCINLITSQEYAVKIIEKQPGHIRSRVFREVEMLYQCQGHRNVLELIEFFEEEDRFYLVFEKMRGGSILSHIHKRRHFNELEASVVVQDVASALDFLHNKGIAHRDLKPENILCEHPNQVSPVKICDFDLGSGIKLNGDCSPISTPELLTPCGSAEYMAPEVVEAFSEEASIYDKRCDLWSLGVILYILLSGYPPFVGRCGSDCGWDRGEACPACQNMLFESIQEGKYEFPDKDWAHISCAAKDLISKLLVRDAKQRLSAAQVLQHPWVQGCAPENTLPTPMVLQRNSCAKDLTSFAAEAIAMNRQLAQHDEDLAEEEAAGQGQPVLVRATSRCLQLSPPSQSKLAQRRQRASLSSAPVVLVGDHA

[28] = target: NEK6 (human) (UniProt Q9HC98)
[29] = target: PIM1 (human) (UniProt P11309)
[30] = target: PRKCI (human) (UniProt P41743)
[31] = target: PRKG1 (human) (UniProt Q13976)
[32] = target: PRKX (human) (UniProt P51817)
[33] = target: RAF1 (human) (UniProt P04049)
[34] = target: RET (human) (UniProt P07949)
[35] = target: STK24 (human) (UniProt Q9Y6E0)
[36] = target: STK25 (human) (UniProt O00506)
[37] = target: STK3 (human) (UniProt Q13188)
STK3 (human), sequence (Q13188 whole entry, looked up): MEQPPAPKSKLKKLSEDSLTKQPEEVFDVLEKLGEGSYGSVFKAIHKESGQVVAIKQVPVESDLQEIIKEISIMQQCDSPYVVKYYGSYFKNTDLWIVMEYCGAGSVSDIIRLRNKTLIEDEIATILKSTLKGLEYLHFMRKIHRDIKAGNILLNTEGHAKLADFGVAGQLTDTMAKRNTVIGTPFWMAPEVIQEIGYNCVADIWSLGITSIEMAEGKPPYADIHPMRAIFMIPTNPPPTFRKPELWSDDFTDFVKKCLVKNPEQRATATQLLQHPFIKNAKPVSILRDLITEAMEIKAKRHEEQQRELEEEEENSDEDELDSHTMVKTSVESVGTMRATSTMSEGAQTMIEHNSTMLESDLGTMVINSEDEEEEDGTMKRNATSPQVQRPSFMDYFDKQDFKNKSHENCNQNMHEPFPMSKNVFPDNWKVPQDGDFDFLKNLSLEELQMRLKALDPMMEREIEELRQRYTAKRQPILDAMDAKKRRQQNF

[38] = target: TGFBR2 (human) (UniProt P37173)
[39] = target: TSSK1B (human) (UniProt Q9BXA7)
[40] = target: VRK1 (human) (UniProt Q99986)
[41] = target: EPHB3 (human) (UniProt P54753)
EPHB3 (human), sequence (P54753 whole entry, looked up): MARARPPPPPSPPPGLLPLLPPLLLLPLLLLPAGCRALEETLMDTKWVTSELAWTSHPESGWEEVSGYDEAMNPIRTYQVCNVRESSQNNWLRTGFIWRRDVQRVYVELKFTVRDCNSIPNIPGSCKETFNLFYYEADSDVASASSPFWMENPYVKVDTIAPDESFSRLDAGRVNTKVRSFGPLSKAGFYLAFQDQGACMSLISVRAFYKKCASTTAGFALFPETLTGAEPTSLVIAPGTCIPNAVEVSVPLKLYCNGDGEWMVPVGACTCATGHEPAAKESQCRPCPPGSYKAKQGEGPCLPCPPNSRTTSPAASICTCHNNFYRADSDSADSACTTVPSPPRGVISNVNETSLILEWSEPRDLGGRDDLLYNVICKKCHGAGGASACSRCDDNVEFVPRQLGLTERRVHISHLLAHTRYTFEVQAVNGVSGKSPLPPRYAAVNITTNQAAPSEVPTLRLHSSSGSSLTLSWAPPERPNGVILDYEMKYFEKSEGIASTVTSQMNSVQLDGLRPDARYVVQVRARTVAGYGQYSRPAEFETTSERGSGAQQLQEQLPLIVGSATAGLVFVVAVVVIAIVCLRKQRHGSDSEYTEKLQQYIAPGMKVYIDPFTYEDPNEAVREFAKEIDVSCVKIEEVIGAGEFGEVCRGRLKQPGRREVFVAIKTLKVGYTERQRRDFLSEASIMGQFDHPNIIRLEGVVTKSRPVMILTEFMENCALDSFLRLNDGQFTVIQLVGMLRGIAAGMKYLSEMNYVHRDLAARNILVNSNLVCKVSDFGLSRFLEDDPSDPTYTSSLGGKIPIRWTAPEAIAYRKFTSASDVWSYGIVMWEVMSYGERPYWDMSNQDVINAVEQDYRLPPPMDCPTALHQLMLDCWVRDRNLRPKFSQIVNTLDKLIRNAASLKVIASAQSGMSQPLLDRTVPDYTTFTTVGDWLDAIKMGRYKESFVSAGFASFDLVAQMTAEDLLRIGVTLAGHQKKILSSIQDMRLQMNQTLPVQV

[42] = target: MAP3K14 (human) (UniProt Q99558)

Structure (SMILES): Oc1cccc(-c2nc(N3CCOCC3)c3oc4ncccc4c3n2)c1
residual activity [1]: 94.4%
residual activity [2]: 105%
residual activity [3]: 91.1%
residual activity [4]: 97.1%
residual activity [5]: 103%
residual activity [6]: 84.4%
residual activity [7]: 93.9%
residual activity [8]: 89.7%
residual activity [9]: 105%
residual activity [10]: 85.2%
residual activity [11]: 93.1%
residual activity [12]: 81.5%
residual activity [13]: 88.3%
residual activity [14]: 87.9%
residual activity [15]: 99.9%
residual activity [16]: 93.1%
residual activity [17]: 94.3%
residual activity [18]: 83.8%
residual activity [19]: 79%
residual activity [20]: 100%
residual activity [21]: 104%
residual activity [22]: 85.9%
residual activity [23]: 101%
residual activity [24]: 82.4%
residual activity [25]: 92.9%
residual activity [26]: 97.4%
residual activity [27]: 92.6%
residual activity [28]: 106%
residual activity [29]: 91.2%
residual activity [30]: 94.9%
residual activity [31]: 109% and 96.3%
residual activity [32]: 96.2%
residual activity [33]: 79.1%
residual activity [34]: 99.8%
residual activity [35]: 100%
residual activity [36]: 93.4%
residual activity [37]: 105%
residual activity [38]: 102%
residual activity [39]: 93.4%
residual activity [40]: 98.4%

Structure (SMILES): CCCC(=O)Oc1ccc2[nH]c(C(=O)c3cc4ccccc4[nH]3)cc2c1
residual activity [1]: 100%
residual activity [2]: 90.9%
residual activity [3]: 99.5%
residual activity [4]: 98.8%
residual activity [5]: 111%
residual activity [6]: 87.3%
residual activity [7]: 88.2%
residual activity [8]: 92.5%
residual activity [9]: 105%
residual activity [10]: 99.3%
residual activity [11]: 96.9%
residual activity [12]: 90.2%
residual activity [13]: 83.5%
residual activity [14]: 94%
residual activity [15]: 82.7%
residual activity [16]: 88.5%
residual activity [18]: 95.2%
residual activity [19]: 88%
residual activity [41]: 94.2%
residual activity [20]: 105%
residual activity [21]: 82.7%
residual activity [22]: 90.4%
residual activity [42]: 109%
residual activity [23]: 103%
residual activity [24]: 88%
residual activity [25]: 83.1%
residual activity [26]: 92.1%
residual activity [27]: 105%
residual activity [28]: 101%
residual activity [29]: 100%
residual activity [30]: 99.2%
residual activity [31]: 104% and 95.1%
residual activity [32]: 96.1%
residual activity [33]: 98.7%
residual activity [34]: 100%
residual activity [35]: 95.5%
residual activity [36]: 94.5%
residual activity [37]: 87%
residual activity [38]: 101%
residual activity [39]: 78.1%
residual activity [40]: 85.9%

Structure (SMILES): N#C/C(=C(/N)Sc1ccc(N)cc1)c1ccccc1C(F)(F)F
residual activity [1]: 106%
residual activity [2]: 106%
residual activity [3]: 91.2%
residual activity [4]: 102%
residual activity [5]: 110%
residual activity [6]: 91.2%
residual activity [7]: 105%
residual activity [8]: 103%
residual activity [9]: 97.7%
residual activity [11]: 103%
residual activity [12]: 93.4%
residual activity [13]: 90.9%
residual activity [14]: 82.9%
residual activity [15]: 103%
residual activity [16]: 102%
residual activity [17]: 93.9%
residual activity [18]: 97.3%
residual activity [19]: 92.3%
residual activity [41]: 96.7%
residual activity [20]: 113%
residual activity [21]: 89.8%
residual activity [22]: 94.4%
residual activity [42]: 111%
residual activity [23]: 108%
residual activity [24]: 94%
residual activity [25]: 124%
residual activity [26]: 107%
residual activity [27]: 109%
residual activity [28]: 101%
residual activity [29]: 99.7%
residual activity [30]: 102%
residual activity [31]: 100% and 98.8%
residual activity [32]: 98.9%
residual activity [33]: 103%
residual activity [34]: 101%
residual activity [35]: 89.3%
residual activity [36]: 114%
residual activity [37]: 125%
residual activity [38]: 113%
residual activity [39]: 103%
residual activity [40]: 100%

residual activity [1]: 89.1%
residual activity [2]: 103%
residual activity [3]: 101%
residual activity [4]: 89%
residual activity [5]: 96.2%
residual activity [6]: 88.7%
residual activity [7]: 89.4%
residual activity [8]: 72.8%
residual activity [9]: 91%
residual activity [11]: 71.1%
residual activity [12]: 34.3%
residual activity [13]: 78.2%
residual activity [14]: 79.2%
residual activity [15]: 93.3%
residual activity [16]: 106%
residual activity [17]: 94.1%
residual activity [18]: 97.1%
residual activity [19]: 24%
residual activity [41]: 98.6%
residual activity [20]: 86.7%
residual activity [21]: 65.5%
residual activity [22]: 79.4%
residual activity [42]: 109%
residual activity [23]: 105%
residual activity [24]: 5.06%
residual activity [25]: 44.1%
residual activity [26]: 41.9%
residual activity [27]: 106%
residual activity [28]: 104%
residual activity [29]: 103%
residual activity [30]: 98.7%
residual activity [31]: 93.2% and 97.1%
residual activity [32]: 104%
residual activity [33]: 114%
residual activity [34]: 23%
residual activity [35]: 49.6%
residual activity [36]: 91%
residual activity [37]: 78.6%
residual activity [38]: 127%
residual activity [39]: 21.7%
residual activity [40]: 87.3%
Structure (SMILES): Cc1[nH]c(/C=C2\C(=O)Nc3ccc(S(=O)(=O)N(C)c4cccc(Cl)c4)cc32)c(C)c1C(=O)N1CCN(C)CC1
